Test results published in patent US9109041B2, “Analog compounds of analgesic peptides derived from the venom of crotalus durissus terrificus snakes, their uses, compositions, methods of preparation and purification” (priority 2004, dated 2015).

What was measured:
[1] = system: allodynia induced by constriction of the sciatic nerve; experiment: allodynia induced by chronic constriction of the sciatic nerve (von Frey hairs); assay type: in vivo, rat; conditions: for paw withdrawal threshold (allodynia), FM 72 h: day 14, 72 h after peptide; for paw withdrawal threshold (allodynia), FM 96 h: day 14, 96 h after peptide
Experimental: (§1) For the induction of neuropathic pain, surgery was performed in the sciatic nerve, in accordance with the method described by Bennett, G. J and Xie, Y. K. (Pain, 33:87-107, 1988). The animals were anesthetized with halothane. The sciatic nerve was exposed in the middle region of the thigh, moving away the femoral biceps muscle. Close to the trifurcation of the sciatic nerve, 7 mm of distance from the trifurcation, 4 loose ligations were performed (chromed catgut 4-0) around it, distant from each other in approximately 1 mm. The bindings were performed along the nerve, up to 4-5 mm from the initial point. The incision was sutured in layers, using silk suture thread number 4-0.
Allodynia was evaluated for quantitative testing, in response to tactile stimulus applied to the paws of the rat, according to the method described by Chaplan el al. (1994), modified. In this test, the rats were placed, individually, in plastic cages, with meshed wire at the bottom, to allow access to the paws of these animals. Briefly, a logarithmic series of 10 calibrated Semmes-Weinstein monofilaments (von Frey hairs, Aesthesiometer Semmer-Weinstein, Stoelting Co., E.U.A) was applied to the right hind paw to determine the stimulus intensity threshold stiffness required to elicit a paw withdrawal response. Log stiffness of the hairs is determined by log 10 (mg×10) having the following values (the value in grams is between parenthesis): 3.61 (0.407 g); 3.84 (0.692 g); 4.08 (1.202 g); 4.17 (1.479 g); 4.31 (2.041 g); 4.56 (3.630 g); 4.74 (5.495 g); 4.93 (8.511 g); 5.07 (11.749 g) and 5.18 (15.136 g). It is important to point out that the filaments with weight greater than 15.136 g were not employed in the studies of allodynia.
The filaments were applied, one by one, perpendicularly, under the plantar area of both hind paws and maintained for a period of 8 seconds. The filament capable of eliciting the withdrawal of the paw, two consecutive times, was considered as the force in grams necessary to elicit the response (100% of response). In the absence of a response to the greater stimulus (15.135 g), this filament was considered as cut value.
The behavioral responses were used to calculate the 50% paw withdrawal threshold (absolute threshold), by fitting a gaussian integral psychometric function, using a maximum-likelihood fitting method. This fitting method allows parametric analyses.
The period of the application of the test and the treatments were the same as those used for determination of hyperalgesia (Table 12).
The results were analyzed by comparing the means of the basal and initial measurements or, when determined, by comparing the means obtained in the different experimental groups.
(§2) For this purpose, the animals were treated with CTOP, a specific μ receptor antagonist (20 μg/paw), nor-BNI, a specific κ receptor antagonist (50 μg/paw) or with ICI 174,864, a specific δ receptor antagonist (10 μg/paw). The antagonists were injected, by intraplantar route. The peptide was administered in the dose of 5 μg/kg, orally, immediately before the injection of the opioid antagonists.
(§3) The results were analyzed comparing the mean values of the basal and initial measurements, or of the initial and final measurements or, when determined, by comparing the mean values obtained in the different experimental groups (Tables 15 and 16).

[2] = system: hyperalgesia induced by chronic constriction of the sciatic nerve; experiment: hyperalgesia induced by chronic constriction of the sciatic nerve (rat paw pressure test); assay type: in vivo; conditions: 0.0016 μg/kg p.o.
Experimental: as §1
The test was applied before (BM-basal measurement) and on the 14th day after the surgery, to characterize the development of neuropathic pain.
The results were analyzed by comparing the means of the basal and initial measurements or by comparing the means of the initial and final measurements or, when determined, through the comparison of the means obtained in the different experimental groups.
as §2, §3

Xaa-Phe-Ser-Pro-Glu-Asn-Cys-Gln-Gly-Glu-Ser-Gln-Pro-Cys [SEQ ID NO: 2]
paw withdrawal threshold (allodynia), FM 72 h ([1]; 1 μg/kg p.o.): 4.62 ± 0.00 log 10 (mg × 10) | paw withdrawal threshold (allodynia), FM 96 h ([1]; 1 μg/kg p.o.): 4.22 ± 0.00 log 10 (mg × 10) | paw withdrawal threshold (allodynia), IM ([1]; 1 μg/kg p.o., day 14 after surgery, before peptide): 4.23 ± 0.01 log 10 (mg × 10) | paw withdrawal threshold (allodynia), FM 1 h ([1]; 5 μg/kg p.o. + CTOP 20 μg/paw i.pl., 1 h after peptide): 5.00 ± 0.05 log 10 (mg × 10) | paw withdrawal threshold (allodynia), FM 3 h ([1]; 5 μg/kg p.o. + CTOP 20 μg/paw i.pl., 3 h after peptide): 4.99 ± 0.02 log 10 (mg × 10) | paw withdrawal threshold (allodynia), BM ([1]; 5 μg/kg p.o. + CTOP 20 μg/paw i.pl., before surgery): 4.99 ± 0.02 log 10 (mg × 10) | paw withdrawal threshold (allodynia), IM ([1]; 5 μg/kg p.o. + CTOP 20 μg/paw i.pl., day 14, before peptide): 4.29 ± 0.04 log 10 (mg × 10) | paw withdrawal threshold (allodynia), FM 1 h ([1]; 5 μg/kg p.o. + ICI 174,864 10 μg/paw i.pl., 1 h after peptide): 4.22 ± 0 log 10 (mg × 10) | paw withdrawal threshold (allodynia), FM 3 h ([1]; 5 μg/kg p.o. + ICI 174,864 10 μg/paw i.pl., 3 h after peptide): 4.22 ± 0 log 10 (mg × 10) | paw withdrawal threshold (allodynia), BM ([1]; 5 μg/kg p.o. + ICI 174,864 10 μg/paw i.pl., before surgery): 4.96 ± 0.04 log 10 (mg × 10) | paw withdrawal threshold (allodynia), IM ([1]; 5 μg/kg p.o. + ICI 174,864 10 μg/paw i.pl., day 14, before peptide): 4.29 ± 0.04 log 10 (mg × 10) | paw withdrawal threshold (allodynia), FM 1 h ([1]; 5 μg/kg p.o. + nor-BNI 50 μg/paw i.pl., 1 h after peptide): 4.62 ± 0 log 10 (mg × 10) | paw withdrawal threshold (allodynia), FM 3 h ([1]; 5 μg/kg p.o. + nor-BNI 50 μg/paw i.pl., 3 h after peptide): 4.62 ± 0 log 10 (mg × 10) | paw withdrawal threshold (allodynia), BM ([1]; 5 μg/kg p.o. + nor-BNI 50 μg/paw i.pl., before surgery): 5.03 ± 0.02 log 10 (mg × 10) | paw withdrawal threshold (allodynia), IM ([1]; 5 μg/kg p.o. + nor-BNI 50 μg/paw i.pl., day 14, before peptide): 4.25 ± 0.03 log 10 (mg × 10) | paw withdrawal threshold (allodynia), FM 1 h ([1]; 5 μg/kg p.o., 1 h after peptide (Table 16)): 5.08 ± 0.01 log 10 (mg × 10) | paw withdrawal threshold (allodynia), FM 3 h ([1]; 5 μg/kg p.o., 3 h after peptide (Table 16)): 5.09 ± 0 log 10 (mg × 10) | paw withdrawal threshold (allodynia), BM ([1]; 5 μg/kg p.o., before surgery (Table 12)): 4.99 ± 0.03 log 10 (mg × 10) | paw withdrawal threshold (allodynia), BM ([1]; 5 μg/kg p.o., before surgery (Table 16)): 5.00 ± 0.03 log 10 (mg × 10) | paw withdrawal threshold (allodynia), FM 1 h ([1]; 5 μg/kg p.o., day 14, 1 h after peptide (Table 12)): 4.94 ± 0.05 log 10 (mg × 10) | paw withdrawal threshold (allodynia), FM 3 h ([1]; 5 μg/kg p.o., day 14, 3 h after peptide (Table 12)): 4.98 ± 0.04 log 10 (mg × 10) | paw withdrawal threshold (allodynia), FM 24 h ([1]; 5 μg/kg p.o., day 14, 24 h after peptide): 4.97 ± 0.03 log 10 (mg × 10) | paw withdrawal threshold (allodynia), FM 48 h ([1]; 5 μg/kg p.o., day 14, 48 h after peptide): 4.93 ± 0.04 log 10 (mg × 10) | paw withdrawal threshold (allodynia), FM 72 h ([1]; 5 μg/kg p.o.): 4.85 ± 0.02 log 10 (mg × 10) | paw withdrawal threshold (allodynia), FM 96 h ([1]; 5 μg/kg p.o.): 4.21 ± 0.01 log 10 (mg × 10) | paw withdrawal threshold (allodynia), IM ([1]; 5 μg/kg p.o., day 14, before peptide (Table 16)): 4.27 ± 0.04 log 10 (mg × 10) | paw withdrawal threshold (allodynia), IM ([1]; 5 μg/kg p.o., day 14 after surgery, before peptide (Table 12)): 4.23 ± 0.00 log 10 (mg × 10) | duration of the anti-allodynic effect ([1]; one single administration p.o.): up to 3 days | effect of the mu opioid receptor antagonist on the anti-allodynic effect of the peptide ([1]; peptide 5 μg/kg p.o., CTOP 20 μg/paw i.pl.): did not alter | effect of the delta opioid receptor antagonist on the anti-allodynic effect of the peptide ([1]; peptide 5 μg/kg p.o., ICI 174,864 10 μg/paw i.pl.): blocked | effect of the kappa opioid receptor antagonist on the anti-allodynic effect of the peptide ([1]; peptide 5 μg/kg p.o., nor-BNI 50 μg/paw i.pl.): partially inhibited | pain threshold, BM ([2]; before surgery): 72 ± 1.22 g | pain threshold, FM 1 h ([2]; day 14, 1 h after peptide): 32 ± 1.22 g | pain threshold, FM 3 h ([2]; day 14, 3 h after peptide): 32 ± 1.22 g | pain threshold, FM 24 h ([2]; day 14, 24 h after peptide): 33 ± 1.22 g | pain threshold, FM 48 h ([2]; day 14, 48 h after peptide): 30 ± 0.00 g | pain threshold, FM 72 h ([2]; day 14, 72 h after peptide): 32 ± 1.22 g | pain threshold, FM 96 h ([2]; day 14, 96 h after peptide): 32 ± 1.22 g
